What was measured:
EGFR^L858R/T790M/C^797S = EGFR^L858R/T790M/C^797S (Homo sapiens, UniProt P00533, C797S/L858R/T790M); assay: in vitro kinase assay (HTRF KinEASE-TK kit), LTC; type: biochemical; details: kinase inhibition
From the text: (§1) Assays using an in vitro kinase assay kit (HTRF KinEASE-TK kit) can be used to study the inhibitory activity of compounds described herein with respect to EGFR mutants such as EGFR^L858R, EGFR^L58R/T790M, and EGFR^L858R/T790M/C^797S.

[1] = biological target: Ba/F3 EGFR-Del19/T790M/C797S (Homo sapiens, UniProt P00533, T790M/C797S, cells depend on it, form not given); assay: Ba/F3 viability assay (CellTiter-Glo), DTC; type: cell-based; details: anti-proliferation, read-out: BaF3 DTC IC50
From the text: (§2) Inhibition of cell proliferation can be studied using Ba/F3 viability assays, including the Promega CellTiter-Glo cell viability assay. This assay can be used to study the effect of compounds described herein in the following assays: (1) Ba/F3 Parental; (2) Ba/F3 EGFR-Del19/T790M; (3); Ba/F3 EGFR-Del19/C797S; and (4) Ba/F3 EGFR-Del19/T790M/C797S.

Ba/F3 Parental = assay: Ba/F3 viability assay (CellTiter-Glo), parental; type: cell-based; details: Mus musculus, BaF3, anti-proliferation
From the text: as §2

EGFR^L858R = EGFR^L858R (Homo sapiens, UniProt P00533, L858R); assay: in vitro kinase assay (HTRF KinEASE-TK kit), L; type: biochemical; details: kinase inhibition
From the text: as §1

EGFR^L58R/T790M = EGFR^L58R/T790M (Homo sapiens, UniProt P00533, L858R/T790M); assay: in vitro kinase assay (HTRF KinEASE-TK kit), LT; type: biochemical; details: kinase inhibition
From the text: as §1

Ba/F3 EGFR-Del19/T790M = Ba/F3 EGFR-Del19/T790M (Homo sapiens, UniProt P00533, T790M, cells depend on it, form not given); assay: Ba/F3 viability assay (CellTiter-Glo), DT; type: cell-based; details: anti-proliferation, read-out: BaF3 DT IC50
From the text: as §2

Ba/F3 EGFR-Del19/C797S = Ba/F3 EGFR-Del19/C797S (Homo sapiens, UniProt P00533, C797S, cells depend on it, form not given); assay: Ba/F3 viability assay (CellTiter-Glo), DC; type: cell-based; details: anti-proliferation, read-out: BaF3 DC IC50
From the text: as §2

Chain of EGFR^L58R/T790M (P00533 25-1210 T790M/L858R): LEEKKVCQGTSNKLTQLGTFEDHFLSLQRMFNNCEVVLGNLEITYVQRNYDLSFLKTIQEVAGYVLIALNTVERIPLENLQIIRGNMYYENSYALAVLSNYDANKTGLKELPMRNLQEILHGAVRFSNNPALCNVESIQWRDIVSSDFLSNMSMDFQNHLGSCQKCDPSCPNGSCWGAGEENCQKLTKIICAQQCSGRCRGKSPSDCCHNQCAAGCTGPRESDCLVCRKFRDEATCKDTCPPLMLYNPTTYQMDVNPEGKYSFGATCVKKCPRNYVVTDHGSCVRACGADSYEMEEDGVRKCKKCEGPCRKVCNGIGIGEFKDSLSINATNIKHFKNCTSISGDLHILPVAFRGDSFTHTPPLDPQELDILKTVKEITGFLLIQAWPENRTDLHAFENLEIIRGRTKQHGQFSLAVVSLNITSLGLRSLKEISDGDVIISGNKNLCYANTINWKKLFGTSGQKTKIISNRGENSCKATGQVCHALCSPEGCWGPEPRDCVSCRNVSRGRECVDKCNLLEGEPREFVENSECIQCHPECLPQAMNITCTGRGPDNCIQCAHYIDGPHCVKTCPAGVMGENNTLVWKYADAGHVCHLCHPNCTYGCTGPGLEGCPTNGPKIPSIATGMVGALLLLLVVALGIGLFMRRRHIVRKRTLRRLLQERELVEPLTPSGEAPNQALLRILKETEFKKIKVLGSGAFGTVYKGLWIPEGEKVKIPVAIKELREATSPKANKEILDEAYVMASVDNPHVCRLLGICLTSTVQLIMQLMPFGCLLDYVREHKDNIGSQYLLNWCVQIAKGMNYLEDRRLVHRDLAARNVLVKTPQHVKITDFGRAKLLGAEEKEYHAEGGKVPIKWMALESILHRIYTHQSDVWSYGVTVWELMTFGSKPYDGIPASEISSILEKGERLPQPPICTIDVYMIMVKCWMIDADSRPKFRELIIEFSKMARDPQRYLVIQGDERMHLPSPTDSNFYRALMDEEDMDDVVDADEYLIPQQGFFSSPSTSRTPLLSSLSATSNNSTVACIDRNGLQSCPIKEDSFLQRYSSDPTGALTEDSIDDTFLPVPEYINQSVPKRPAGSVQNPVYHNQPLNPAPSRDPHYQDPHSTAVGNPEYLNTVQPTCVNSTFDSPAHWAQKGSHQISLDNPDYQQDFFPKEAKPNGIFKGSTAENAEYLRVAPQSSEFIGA
Chain of Ba/F3 EGFR-Del19/C797S (P00533 with tags, fused parts or gaps DEL746-750/C797S, form open): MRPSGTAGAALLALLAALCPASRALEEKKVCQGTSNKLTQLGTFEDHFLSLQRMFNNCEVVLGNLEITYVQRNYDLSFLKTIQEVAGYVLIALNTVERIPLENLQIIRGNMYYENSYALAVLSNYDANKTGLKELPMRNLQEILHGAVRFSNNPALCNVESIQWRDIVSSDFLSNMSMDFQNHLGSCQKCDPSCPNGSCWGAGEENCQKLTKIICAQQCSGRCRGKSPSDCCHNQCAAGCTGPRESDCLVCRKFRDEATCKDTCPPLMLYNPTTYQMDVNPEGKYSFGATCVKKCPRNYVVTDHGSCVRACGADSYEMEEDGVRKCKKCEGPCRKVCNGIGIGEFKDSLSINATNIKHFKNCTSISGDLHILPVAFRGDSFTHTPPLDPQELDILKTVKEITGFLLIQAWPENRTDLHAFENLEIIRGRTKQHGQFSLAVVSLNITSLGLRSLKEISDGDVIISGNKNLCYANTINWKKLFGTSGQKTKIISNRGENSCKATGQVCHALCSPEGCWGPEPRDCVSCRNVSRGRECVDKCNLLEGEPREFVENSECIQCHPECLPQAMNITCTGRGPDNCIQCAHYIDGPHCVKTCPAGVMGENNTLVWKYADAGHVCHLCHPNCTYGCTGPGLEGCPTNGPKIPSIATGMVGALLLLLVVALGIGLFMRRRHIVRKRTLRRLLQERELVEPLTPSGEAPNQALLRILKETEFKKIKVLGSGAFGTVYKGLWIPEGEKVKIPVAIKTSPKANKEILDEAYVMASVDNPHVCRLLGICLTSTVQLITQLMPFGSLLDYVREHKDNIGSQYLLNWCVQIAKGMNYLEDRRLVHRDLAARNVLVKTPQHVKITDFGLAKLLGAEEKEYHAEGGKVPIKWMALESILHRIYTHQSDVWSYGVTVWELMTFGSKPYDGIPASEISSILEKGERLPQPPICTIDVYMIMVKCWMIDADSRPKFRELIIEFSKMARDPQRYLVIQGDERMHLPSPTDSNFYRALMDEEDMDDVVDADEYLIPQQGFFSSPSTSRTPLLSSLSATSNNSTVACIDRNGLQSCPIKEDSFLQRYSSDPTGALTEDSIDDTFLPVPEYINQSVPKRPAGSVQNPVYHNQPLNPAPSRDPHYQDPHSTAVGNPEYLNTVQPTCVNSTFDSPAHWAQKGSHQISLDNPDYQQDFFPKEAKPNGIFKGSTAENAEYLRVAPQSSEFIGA
Chain of Ba/F3 EGFR-Del19/T790M (P00533 with tags, fused parts or gaps DEL746-750/T790M, form open): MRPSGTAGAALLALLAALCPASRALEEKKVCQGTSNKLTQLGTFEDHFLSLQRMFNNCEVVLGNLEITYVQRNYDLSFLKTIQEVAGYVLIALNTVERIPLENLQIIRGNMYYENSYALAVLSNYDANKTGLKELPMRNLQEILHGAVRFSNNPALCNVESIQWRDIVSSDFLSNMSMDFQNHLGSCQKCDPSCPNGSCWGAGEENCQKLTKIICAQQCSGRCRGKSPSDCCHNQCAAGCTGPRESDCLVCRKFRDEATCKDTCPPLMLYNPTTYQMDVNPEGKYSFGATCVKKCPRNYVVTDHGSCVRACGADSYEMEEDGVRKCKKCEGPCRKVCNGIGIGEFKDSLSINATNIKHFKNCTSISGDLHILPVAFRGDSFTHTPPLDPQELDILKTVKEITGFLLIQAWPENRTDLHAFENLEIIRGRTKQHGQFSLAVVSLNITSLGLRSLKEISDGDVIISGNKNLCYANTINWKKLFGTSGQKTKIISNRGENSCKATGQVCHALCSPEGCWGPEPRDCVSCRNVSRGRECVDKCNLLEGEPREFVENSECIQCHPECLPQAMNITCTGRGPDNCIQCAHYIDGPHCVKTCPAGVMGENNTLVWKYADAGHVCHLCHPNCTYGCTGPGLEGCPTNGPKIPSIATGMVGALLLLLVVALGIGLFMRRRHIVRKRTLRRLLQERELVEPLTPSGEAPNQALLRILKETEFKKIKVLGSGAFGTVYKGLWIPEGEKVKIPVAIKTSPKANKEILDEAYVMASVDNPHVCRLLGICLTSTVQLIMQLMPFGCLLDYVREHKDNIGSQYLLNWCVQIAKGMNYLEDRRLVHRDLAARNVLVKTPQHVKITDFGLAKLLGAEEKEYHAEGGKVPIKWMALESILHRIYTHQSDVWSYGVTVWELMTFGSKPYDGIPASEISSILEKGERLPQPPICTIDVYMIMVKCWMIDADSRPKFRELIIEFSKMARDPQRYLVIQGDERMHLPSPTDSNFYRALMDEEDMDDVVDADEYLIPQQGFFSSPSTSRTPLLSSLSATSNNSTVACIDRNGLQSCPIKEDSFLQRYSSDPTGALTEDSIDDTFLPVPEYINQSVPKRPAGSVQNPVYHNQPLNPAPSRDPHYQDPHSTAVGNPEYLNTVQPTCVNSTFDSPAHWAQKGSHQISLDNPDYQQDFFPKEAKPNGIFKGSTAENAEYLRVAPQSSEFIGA
Chain of EGFR^L858R/T790M/C^797S (P00533 25-1210 T790M/C797S/L858R): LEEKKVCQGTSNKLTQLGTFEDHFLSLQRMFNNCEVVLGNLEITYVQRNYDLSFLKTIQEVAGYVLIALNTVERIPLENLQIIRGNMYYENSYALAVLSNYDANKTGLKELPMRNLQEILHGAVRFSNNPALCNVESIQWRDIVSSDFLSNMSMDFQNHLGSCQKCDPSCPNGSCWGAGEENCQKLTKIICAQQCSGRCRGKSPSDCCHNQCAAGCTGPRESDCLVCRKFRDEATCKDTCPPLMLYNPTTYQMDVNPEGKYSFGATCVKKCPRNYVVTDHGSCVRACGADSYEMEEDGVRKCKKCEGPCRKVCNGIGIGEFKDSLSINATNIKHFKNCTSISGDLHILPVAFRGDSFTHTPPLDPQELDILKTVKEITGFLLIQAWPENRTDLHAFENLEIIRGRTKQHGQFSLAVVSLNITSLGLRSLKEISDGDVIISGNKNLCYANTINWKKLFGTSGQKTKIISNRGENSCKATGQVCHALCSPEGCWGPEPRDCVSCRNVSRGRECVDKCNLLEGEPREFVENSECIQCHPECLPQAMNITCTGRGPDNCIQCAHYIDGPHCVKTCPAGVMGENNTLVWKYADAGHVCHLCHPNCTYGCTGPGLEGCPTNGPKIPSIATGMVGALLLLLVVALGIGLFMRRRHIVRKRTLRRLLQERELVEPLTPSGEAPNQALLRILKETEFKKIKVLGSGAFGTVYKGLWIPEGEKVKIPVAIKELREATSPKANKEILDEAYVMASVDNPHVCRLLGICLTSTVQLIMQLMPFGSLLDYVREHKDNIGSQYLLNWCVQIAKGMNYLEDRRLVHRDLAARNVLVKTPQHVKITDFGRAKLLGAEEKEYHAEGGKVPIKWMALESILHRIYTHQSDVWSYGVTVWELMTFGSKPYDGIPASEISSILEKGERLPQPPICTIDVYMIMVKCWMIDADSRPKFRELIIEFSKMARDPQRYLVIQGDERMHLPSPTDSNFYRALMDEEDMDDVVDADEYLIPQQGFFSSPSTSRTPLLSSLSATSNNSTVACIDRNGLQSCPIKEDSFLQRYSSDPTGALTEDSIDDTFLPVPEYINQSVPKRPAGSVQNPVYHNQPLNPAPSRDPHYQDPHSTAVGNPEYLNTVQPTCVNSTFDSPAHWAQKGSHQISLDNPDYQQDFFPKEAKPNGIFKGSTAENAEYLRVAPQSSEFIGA

IC50 (EGFR^L858R/T790M/C^797S) [nM]	IC50 (EGFR^L858R) [nM]	IC50 (EGFR^L58R/T790M) [nM]	Structure (SMILES)	GI50 [1] [nM]	IC50 (Ba/F3 Parental) [nM]	GI50 (Ba/F3 EGFR-Del19/T790M) [nM]	GI50 (Ba/F3 EGFR-Del19/C797S) [nM]
< 10	< 10	< 10	C[C@H]1CCOc2c(cnn2C)-c2nccc(n2)Nc2cc3c(cn2)c(-c2cccc(N4CCC(N(C)C)CC4)c2)nn31 [(108)]	< 10	100 to 1000	10 to 100	10 to 100
< 10	< 10	< 10	CC1CCOc2c(cnn2C)-c2nccc(n2)Nc2cc3c(cn2)c(-c2ccc(CN4CCN(C)CC4)o2)nn31 (stereo not shown) [(63), 11,16-dimethyl-19-[5-[(4-methylpiperazin-1-yl)methyl]-2-furyl]-13-oxa-2,6,10,11,17,18,22,25-octazapentacyclo[15.5.2.13,7.08,12.020,24]pentacosa-1(22),3,5,7(25),8(12),9,18,20,23-nonaene]	10 to 100	100 to 1000	10 to 100	< 10
< 10	100 to 1000	< 10	Cn1ncc2c1OCCCn1nc(N3CCCC3C(=O)O)c3cnc(cc31)Nc1ccnc-2n1 (stereo not shown) [(65)]	100 to 1000	100 to 1000	100 to 1000	100 to 1000
< 10	< 10	< 10	C[C@H]1CCOc2c(cnn2C)-c2nccc(n2)Nc2cc3c(cn2)c(-c2ccc(CN4CCN(CCF)CC4)n2C)nn31 [(193)]	< 10	100 to 1000	< 10	< 10
< 10	10 to 100	< 10	CC1CCCCOc2c(cnn2C)-c2nccc(n2)Nc2cc3c(cn2)c(N2CCC2)nn31 (stereo not shown) [(58)]	10 to 100	≥ 1000	10 to 100	10 to 100
< 10	< 10	< 10	C[C@H]1CCOc2c(cnn2C)-c2nccc(n2)Nc2cc3c(cn2)c(-c2ccn(C)c2)nn31 [(109)]	< 10	100 to 1000	< 10	< 10
< 10	10 to 100	< 10	C[C@H]1CCOc2c(cnn2C)-c2nccc(n2)Nc2cc3c(cn2)c(-c2cnn(CCCN4CCOCC4)c2)nn31 [(115)]	10 to 100	100 to 1000	10 to 100	10 to 100
< 10	10 to 100	< 10	CC1CCOc2c(cnn2C)-c2nccc(n2)Nc2cc3c(cn2)c(-c2cccn2CCN(C)C)nn31 (stereo not shown) [(12), 2-[2-(11,16-dimethyl-13-oxa-2,6,10,11,17,18,22,25-octazapentacyclo[15.5.2.13,7.08,12.020,24]pentacosa-1(22),3,5,7(25),8(12),9,18,20,23-nonaen-19-yl)pyrrol-1-yl]-N,N-dimethyl-ethanamine]	10 to 100	100 to 1000	10 to 100	10 to 100
< 10	< 10	< 10	C[C@H]1CCOc2c(cnn2C)-c2nccc(n2)Nc2cc3c(cn2)c(-c2ncc(CN(C)C)s2)nn31 [(157)]	< 10	100 to 1000	10 to 100	10 to 100
< 10	< 10	< 10	C[C@H]1CCOc2c(cnn2C)-c2nccc(n2)Nc2cc3c(cn2)c(-c2ccc(CN4CCN(C)CC4)cc2)nn31 [(172)]	< 10	10 to 100	< 10	< 10
< 10	< 10	< 10	CCN(CC)C1CCN(c2cc(F)cc(-c3nn4c5cc(ncc35)Nc3ccnc(n3)-c3cnn(C)c3OCC[C@@H]4C)c2)CC1 [(141)]	10 to 100	100 to 1000	10 to 100	10 to 100
< 10	10 to 100	< 10	CCn1cc(C(=O)N2CCN(C)CC2)cc1-c1nn2c3cc(ncc13)Nc1ccnc(n1)-c1cnn(C)c1OCCC2C (stereo not shown) [(88)]	100 to 1000	100 to 1000	100 to 1000	100 to 1000
< 10	10 to 100	< 10	C[C@H]1CCCOc2c(cnn2C)-c2nccc(n2)Nc2cc3c(cn2)c(N2CCC2)nn31 [(78)]	10 to 100	100 to 1000	10 to 100	10 to 100
< 10	10 to 100	< 10	CCC1CCOc2c(cnn2C)-c2nccc(n2)Nc2cc3c(cn2)c(N2CCC2)nn31 (stereo not shown) [(5)]	10 to 100	≥ 1000	10 to 100	10 to 100
< 10	< 10	< 10	CCCn1cc(-c2nn3c4cc(ncc24)Nc2ccnc(n2)-c2cnn(C)c2OCC[C@@H]3C)cc1CN1CCOCC1 [(152)]	< 10	100 to 1000	< 10	< 10
< 10	< 10	< 10	C[C@H]1CCOc2c(cnn2C)-c2nccc(n2)Nc2cc3c(cn2)c(N2CC[C@@H](O)C2)nn31 [(112)]	< 10	100 to 1000	< 10	10 to 100
< 10	< 10	< 10	C[C@H]1CCOc2c(cnn2C)-c2nccc(n2)Nc2cc3c(cn2)c(-c2ccc(CN4CCN(C5COC5)CC4)n2C)nn31 [(124)]	< 10	100 to 1000	< 10	< 10
< 10	< 10	< 10	CCn1cc(-c2nn3c4cc(ncc24)Nc2ccnc(n2)-c2cnn(C)c2OCC[C@@H]3C)cc1CN1CCN(C2CC2)CC1 [(126)]	< 10	100 to 1000	< 10	< 10
< 10	10 to 100	< 10	CCn1ccc(-c2nn3c4cc(ncc24)Nc2ccnc(n2)-c2cnn(C)c2OCCCC3C)n1 (stereo not shown) [(85)]	< 10	≥ 1000	< 10	10 to 100
< 10	< 10	< 10	C[C@H]1CCOc2c(cnn2C)-c2nccc(n2)Nc2cc3c(cn2)c(-c2ccc(CN4CCN(CCCF)CC4)n2C)nn31 [(190)]	< 10	100 to 1000	< 10	< 10
< 10	< 10	< 10	CC(C)NCc1ccc(-c2nn3c4cc(ncc24)Nc2ccnc(n2)-c2cnn(C)c2OCC[C@@H]3C)n1C [(188)]	< 10	100 to 1000	< 10	< 10
< 10	10 to 100	< 10	CC1CCOc2c(cnn2C)-c2nccc(n2)Nc2cc3c(cn2)c(N2CCC2)nn31 (stereo not shown) [(33), 17-(azetidin-1-yl)-20,27-dimethyl-30-oxa-21,22,23,24,25,26,27,28-octazapentacyclopentacosa-2,4(14),5(22),6(23),12(24),13(15),16(18),17(25),19(21)-nonaene]	10 to 100	≥ 1000	10 to 100	10 to 100
< 10	< 10	< 10	CC(C)N1CCN(CC2CCN(c3nn4c5cc(ncc35)Nc3ccnc(n3)-c3cnn(C)c3OCC[C@@H]4C)C2)CC1 (stereo partly shown) [(93)]	< 10	10 to 100	< 10	< 10
< 10	10 to 100	< 10	C[C@H]1CCOc2c(cnn2C)-c2nccc(n2)Nc2cc3c(cn2)c(-c2cccc(CN(C)C)n2)nn31 [(182)]	< 10	100 to 1000	10 to 100	10 to 100
< 10	< 10	< 10	C[C@H]1CCOc2c(cnn2C)-c2nccc(n2)Nc2cc3c(cn2)c(N2CC[C@@H](N(C)CCF)C2)nn31 [(179)]	< 10	100 to 1000	< 10	10 to 100
< 10	10 to 100	< 10	CCN(CC)CCOc1cc(F)cc(-c2nn3c4cc(ncc24)Nc2ccnc(n2)-c2cnn(C)c2OCC[C@@H]3C)c1 [(133)]	10 to 100	100 to 1000	10 to 100	10 to 100
< 10	< 10	< 10	CCn1cc(-c2nn3c4cc(ncc24)Nc2ccnc(n2)-c2cnn(C)c2OCC[C@@H]3C)cc1CN1CCN(C)CC1 [(146)]	< 10	100 to 1000	< 10	< 10
< 10	< 10	< 10	CCCN1CCN(Cc2ccc(-c3nn4c5cc(ncc35)Nc3ccnc(n3)-c3cnn(C)c3OCC[C@@H]4C)n2C)CC1 [(135)]	< 10	100 to 1000	< 10	< 10

Source: patent US20230148005A1, “MACROCYCLIC COMPOUNDS AND USES THEREOF” (THESEUS PHARMACEUTICALS, INC., priority 2020, published 2023)
